From US6310091A, “Fungicidal saponin, CAY-1, and isolation thereof from Capsium species fruit” (The United States of America as represented by the …, priority 2000, dated 2001)
Values joined by “and” are separate entries in the source; they are usually repeats but may differ in a detail not shown here. Identical values can stand only once. Like-named read-outs stand apart in the source and are kept apart here.

Assays:
Aspergillus flavus = test: Time course study against germinating conidia of A. flavus; type: cell-based; conditions: Aspergillus flavus, 1% PDB, read-out: Percent of Mean Control
Description: (§1) 1. Filamentous fungi. Filamentous fungi used in bioassays included Aspergillus flavus, A. fumigatus, A. niger, A. parasiticus and Fusarium oxysporum. The fungicidal properties of CAY-1 for the nongerminated and germinating conidia of these fungi were determined separately as described by De Lucca et al. [Med. Mycol., 36:291-298 (1998)] and De Lucca et al. [Antimicrob. Agents Chemother. 43:371-373 (1999)]. […] Two separate experiments were conducted in each medium (n=8 per medium).
(§2) A suspension of the aforementioned fungi were prepared separately in the appropriate medium. Conidia (10^4 conidia/ml) were used immediately for the nongerminated conidial assays while conidia (10^5 conidia/ml) were incubated for 7.5 hours at 30° C. to obtain germinating conidia. Serial dilutions of CAY-1 were prepared in the appropriate medium (totaling 225 μl) to which was added 25 μl of the conidial suspensions. The control consisted of 225 μl of medium and 25 μl of the conidial suspension. After mixing, the samples were incubated for 30 min (30° C.). Samples were then spread on potato dextrose agar plates which were incubated at 30° C. for 24 hours. Colonies were then enumerated.
4. Time course study. The effect of time and concentration on the activity of CAY-1 was determined against the germinating conidia of A. flavus in 1% (w/v) PBD. Bioassays were performed twice as described above (n=8).
(§3) Statistical analyses. ANOVA analyses on ranks for nonparametric data were performed for the bioassays described in this example.

Aspergillus fumigatus = test: Fungicidal bioassay on nongerminated and germinating conidia of A. fumigatus; type: cell-based; conditions: for activity at 2 µM / activity at 3 µM / activity at 4 µM / activity at 5 µM / activity at 7.5 µM / activity at 10 µM / activity at 0.5 µM / activity at 1 µM / activity at 1.5 µM / activity at 2.5 µM: read-out: Percent of Mean Control
Description: as §1, §2, §3

[1] = Aspergillus fumigatus, 0.5 h, read-out: LD95

## CC1CCC2(OC1)OC1CC3C4CCC5CC(OC6OC(CO)C(OC7OC(CO)C(O)C(OC8OC(CO)C(O)C(OC9OC(CO)C(O)C(O)C9O)C8O)C7OC7OC(CO)C(O)C(O)C7O)C(O)C6O)C(O)CC5(C)C4CCC3(C)C1C2C (stereo not drawn) [CAY-1]
Aspergillus flavus; 20 min
  activity at 4 µM: 68%
  activity at 5 µM: 41.5%
  activity at 7.5 µM: 8.6%
  activity at 10 µM: 3.3%
Aspergillus flavus; 0.5 h, 30 min, 2.0 μM
  activity at 2 µM: 90.1%
Aspergillus flavus; 0.5 h, 30 min, 3.0 μM
  activity at 3 µM: 74.4%
Aspergillus flavus; 0.5 h, 30 min
  activity at 4 µM: 54.2%
  activity at 5 µM: 34.9%
  activity at 7.5 µM: 11%
  activity at 10 µM: 8.4%
Aspergillus fumigatus; Aspergillus fumigatus, 0.5 h, germinating, 1% PDB, 2.0 μM
  activity at 2 µM: 96.1%
Aspergillus fumigatus; Aspergillus fumigatus, 0.5 h, germinating, 1% PDB, 3.0 μM
  activity at 3 µM: 49.9%
Aspergillus fumigatus; Aspergillus fumigatus, 0.5 h, germinating, 1% PDB, 4.0 μM
  activity at 4 µM: 14.4%
Aspergillus fumigatus; Aspergillus fumigatus, 0.5 h, germinating, 1% PDB, 5.0 μM
  activity at 5 µM: 6.1%
Aspergillus fumigatus; Aspergillus fumigatus, 0.5 h, germinating, 1% PDB, 7.5 μM
  activity at 7.5 µM: 2.8%
Aspergillus fumigatus; Aspergillus fumigatus, 0.5 h, germinating, 1% PDB, 10.0 μM
  activity at 10 µM: 0.2%
Aspergillus fumigatus; Aspergillus fumigatus, 0.5 h, germinating, RPMI-1640, 0.5 μM
  activity at 0.5 µM: 92.4%
Aspergillus fumigatus; Aspergillus fumigatus, 0.5 h, germinating, RPMI-1640, 1.0 μM
  activity at 1 µM: 105%
Aspergillus fumigatus; Aspergillus fumigatus, 0.5 h, germinating, RPMI-1640, 1.5 μM
  activity at 1.5 µM: 117%
Aspergillus fumigatus; Aspergillus fumigatus, 0.5 h, germinating, RPMI-1640, 2.0 μM
  activity at 2 µM: 118%
Aspergillus fumigatus; Aspergillus fumigatus, 0.5 h, germinating, RPMI-1640, 2.5 μM
  activity at 2.5 µM: 114%
Aspergillus fumigatus; Aspergillus fumigatus, 0.5 h, germinating, RPMI-1640, 3.0 μM
  activity at 3 µM: 40.7%
Aspergillus fumigatus; Aspergillus fumigatus, 0.5 h, germinating, RPMI-1640, 4.0 μM
  activity at 4 µM: 5.1%
Aspergillus fumigatus; Aspergillus fumigatus, 0.5 h, nongerminated, 1% PDB, 2.0 μM
  activity at 2 µM: 93.9%
Aspergillus fumigatus; Aspergillus fumigatus, 0.5 h, nongerminated, 1% PDB, 3.0 μM
  activity at 3 µM: 80.4%
Aspergillus fumigatus; Aspergillus fumigatus, 0.5 h, nongerminated, 1% PDB, 4.0 μM
  activity at 4 µM: 88.5%
Aspergillus fumigatus; Aspergillus fumigatus, 0.5 h, nongerminated, 1% PDB, 5.0 μM
  activity at 5 µM: 86.7%
Aspergillus fumigatus; Aspergillus fumigatus, 0.5 h, nongerminated, 1% PDB, 7.5 μM
  activity at 7.5 µM: 96.6%
Aspergillus fumigatus; Aspergillus fumigatus, 0.5 h, nongerminated, 1% PDB, 10.0 μM
  activity at 10 µM: 101%
Aspergillus fumigatus; Aspergillus fumigatus, 0.5 h, nongerminated, RPMI-1640, 0.5 μM
  activity at 0.5 µM: 117%
Aspergillus fumigatus; Aspergillus fumigatus, 0.5 h, nongerminated, RPMI-1640, 1.0 μM
  activity at 1 µM: 132%
Aspergillus fumigatus; Aspergillus fumigatus, 0.5 h, nongerminated, RPMI-1640, 1.5 μM
  activity at 1.5 µM: 97.4%
Aspergillus fumigatus; Aspergillus fumigatus, 0.5 h, nongerminated, RPMI-1640, 2.0 μM
  activity at 2 µM: 109%
Aspergillus fumigatus; Aspergillus fumigatus, 0.5 h, nongerminated, RPMI-1640, 2.5 μM
  activity at 2.5 µM: 96.5%
Aspergillus fumigatus; Aspergillus fumigatus, 0.5 h, nongerminated, RPMI-1640, 3.0 μM
  activity at 3 µM: 103%
Aspergillus fumigatus; [1]
  LD95 (concentration killing 95% of conidia): 4 µM
  LD95 (concentration lethal to 95% of conidia): 5 µg/mL
Aspergillus fumigatus; Aspergillus fumigatus, 0.5 h, read-out: concentration achieving significant lethality
  minimal effective concentration: 3 µM and 3.7 µg/mL
Aspergillus fumigatus; Aspergillus fumigatus, 0.5 h, read-out: concentration required for statistically significant viability reduction
  minimal effective concentration: 12.4 µg/mL
Aspergillus fumigatus; Aspergillus fumigatus, 0.5 h, germinating conidia, RPMI-1640, p=0.0002, read-out: concentration required for statistically significant viability reduction
  minimal effective concentration: 10 µM
Aspergillus fumigatus; germinating, 1% PDB, 2.0 μM
  Mean No. of Colonies: 44.1
Aspergillus fumigatus; germinating, 1% PDB, 3.0 μM
  Mean No. of Colonies: 22.9
Aspergillus fumigatus; germinating, 1% PDB, 4.0 μM
  Mean No. of Colonies: 6.6
Aspergillus fumigatus; germinating, 1% PDB, 5.0 μM
  Mean No. of Colonies: 2.8
Aspergillus fumigatus; germinating, 1% PDB, 7.5 μM
  Mean No. of Colonies: 1.3
Aspergillus fumigatus; germinating, 1% PDB, 10.0 μM
  Mean No. of Colonies: 0.1
Aspergillus fumigatus; germinating, RPMI-1640, 0.5 μM
  Mean No. of Colonies: 10.9
Aspergillus fumigatus; germinating, RPMI-1640, 1.0 μM
  Mean No. of Colonies: 12.4
Aspergillus fumigatus; germinating, RPMI-1640, 1.5 μM
  Mean No. of Colonies: 13.8
Aspergillus fumigatus; germinating, RPMI-1640, 2.0 μM
  Mean No. of Colonies: 13.9
Aspergillus fumigatus; germinating, RPMI-1640, 2.5 μM
  Mean No. of Colonies: 13.5
Aspergillus fumigatus; germinating, RPMI-1640, 3.0 μM
  Mean No. of Colonies: 4.8
Aspergillus fumigatus; germinating, RPMI-1640, 4.0 μM
  Mean No. of Colonies: 0.6
Aspergillus fumigatus; nongerminated conidia, either test medium
  viability of nongerminated conidia: not affected
Aspergillus fumigatus; nongerminated, 1% PDB, 2.0 μM
  Mean No. of Colonies: 57.4
Aspergillus fumigatus; nongerminated, 1% PDB, 3.0 μM
  Mean No. of Colonies: 49.1
Aspergillus fumigatus; nongerminated, 1% PDB, 4.0 μM
  Mean No. of Colonies: 54.1
Aspergillus fumigatus; nongerminated, 1% PDB, 5.0 μM
  Mean No. of Colonies: 53.0
Aspergillus fumigatus; nongerminated, 1% PDB, 7.5 μM
  Mean No. of Colonies: 59.0
Aspergillus fumigatus; nongerminated, 1% PDB, 10.0 μM
  Mean No. of Colonies: 61.8
Aspergillus fumigatus; nongerminated, RPMI-1640, 0.5 μM
  Mean No. of Colonies: 27.0
Aspergillus fumigatus; nongerminated, RPMI-1640, 1.0 μM
  Mean No. of Colonies: 30.6
Aspergillus fumigatus; nongerminated, RPMI-1640, 1.5 μM
  Mean No. of Colonies: 22.5
Aspergillus fumigatus; nongerminated, RPMI-1640, 2.0 μM
  Mean No. of Colonies: 25.1
Aspergillus fumigatus; nongerminated, RPMI-1640, 2.5 μM
  Mean No. of Colonies: 22.3
Aspergillus fumigatus; nongerminated, RPMI-1640, 3.0 μM
  Mean No. of Colonies: 23.8
